Source: publication PMC5487681, “Identification of Antifungal H^+-ATPase Inhibitors with Effect on Plasma Membrane Potential” (Antimicrobial Agents and Chemotherapy, 2017)
Residues, ends and D or L forms follow the SMILES beside them.

Experiments:
S. cerevisiae Pma1 = S. cerevisiae Pma1 (Saccharomyces cerevisiae, UniProt P05030); conditions: read-out: IC50 Pma1, ATP hydrolysis assay; cited from earlier work
S. cerevisiae cells = experiment: Membrane potential and integrity assay, DiBAC4(3)/PI image cytometry; format: cell-based, Saccharomyces cerevisiae; conditions: for PI signal (membrane integrity), in words: compound 14 after 5 min, BM2 within 5 min; for PI signal (membrane integrity), in words / DiBAC4(3) signal (membrane depolarization), in words: compound 17 15 µM, 30 min (Fig. S1); for DiBAC4(3) signal (membrane depolarization), in words: compound 14 after 5 min of exposure
Experimental: Cells were transferred from frozen stocks to 3 ml of YPD medium and grown overnight at 30°C and 150 rpm. The culture was diluted to an OD600 of 0.15 and grown for 3 to 4 h at 30°C and 150 rpm to an OD600 of 0.5 to 0.7. The cells were pelleted by centrifugation at 2,000 × g for 2 min and washed in buffer A (100 mM MOPS and 1 mM KCl adjusted to pH 7.0 with Trizma base). The washing procedure was repeated, and the cells were resuspended in buffer A to an OD600 of 0.2. Fifty microliters of buffer A containing 3.3 μg/ml propidium iodide (PI; catalog number P1304MP; Thermo Fisher Scientific) and 1 μg/ml DiBAC4(3) (catalog number D8189; Sigma-Aldrich) was mixed with 50 μl the S. cerevisiae cell suspension in buffer A and transferred to a 96-well plate with 1 μl of inhibitor in DMSO, and the components were mixed.
Approximately 30 μl sample was transferred to an A2 glass slide (ChemoMetec, Allerod, Denmark), and the slide was incubated at 30°C before the cells were counted on a NucleoCounter NC-3000 cytometer (ChemoMetec). Five thousand cells were counted per experiment with an exposure time of 1,000 ms. A dark field was used as the masking channel to select the yeast cells. The DiBAC4(3) channel (excitation, 530 nm; emission, 675/75 nm) and the PI channel (excitation, 630 nm; emission, 740/60 nm) were used to measure the membrane potential and membrane integrity, respectively. To account for the fluorescent spillover from the PI channel to the DiBAC4(3) channel, 15% compensation was applied. In all experiments, 1.9% compensation was used to compensate for the DiBAC4(3)-to-PI spillover. The results were analyzed using NucleoView software (ChemoMetec). Only cells with a pixel size of 10 to 40 were included in the analysis, thus avoiding analysis of noncell artifacts. Carbonyl cyanide m-chlorophenylhydrazone (CCCP) was used as a positive control for decreased membrane potential, and lysis buffer was used to validate lost membrane integrity.

C. albicans = conditions: read-out: IC50 for C. albicans, previously reported value; cited from earlier work
[1] = 30 min of exposure, 15 μM (Fig. 4C)

Sequence of S. cerevisiae Pma1 (P05030 whole entry): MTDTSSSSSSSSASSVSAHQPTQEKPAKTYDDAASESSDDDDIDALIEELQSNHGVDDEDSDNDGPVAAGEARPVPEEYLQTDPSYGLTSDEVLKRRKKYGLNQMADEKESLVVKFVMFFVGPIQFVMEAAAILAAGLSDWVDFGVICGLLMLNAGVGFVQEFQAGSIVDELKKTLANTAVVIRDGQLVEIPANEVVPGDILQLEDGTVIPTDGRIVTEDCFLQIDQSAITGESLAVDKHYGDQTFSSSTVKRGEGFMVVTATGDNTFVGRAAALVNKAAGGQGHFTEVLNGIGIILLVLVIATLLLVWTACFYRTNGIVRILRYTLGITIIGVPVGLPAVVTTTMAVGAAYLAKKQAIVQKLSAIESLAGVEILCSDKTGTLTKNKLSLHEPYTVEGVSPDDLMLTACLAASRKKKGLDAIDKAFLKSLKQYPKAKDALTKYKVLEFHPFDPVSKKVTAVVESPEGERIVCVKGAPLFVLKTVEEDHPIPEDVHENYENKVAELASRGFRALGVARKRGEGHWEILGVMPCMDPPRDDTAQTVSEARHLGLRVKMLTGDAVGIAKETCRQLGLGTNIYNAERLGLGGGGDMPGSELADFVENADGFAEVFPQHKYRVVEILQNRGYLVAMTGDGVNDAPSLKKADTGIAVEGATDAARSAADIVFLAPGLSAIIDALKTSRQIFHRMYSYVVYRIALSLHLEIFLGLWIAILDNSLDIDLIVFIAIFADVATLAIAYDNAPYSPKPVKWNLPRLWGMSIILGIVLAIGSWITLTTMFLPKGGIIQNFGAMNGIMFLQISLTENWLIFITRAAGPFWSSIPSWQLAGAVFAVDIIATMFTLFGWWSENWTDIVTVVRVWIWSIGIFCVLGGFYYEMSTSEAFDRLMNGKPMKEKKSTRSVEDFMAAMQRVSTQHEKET

N=C(N)NCCC[C@@H](N)C(=O)N[C@H](CCCNC(=N)N)C(=O)N[C@H](CCCNC(=N)N)C(=O)N[C@H](Cc1ccccc1)C(=O)N[C@H](Cc1c[nH]c2ccccc12)C(=O)N[C@H](Cc1c[nH]c2ccccc12)C(=O)N[C@H](Cc1ccccc1)C(=O)N[C@H](CCCNC(=N)N)C(=O)N[C@H](CCCNC(=N)N)C(=O)N[C@H](CCCNC(=N)N)C(N)=O [BM2, reference compound] (HELM PEPTIDE1{[dR].[dR].[dR].[dF].[dW].[dW].[dF].[dR].[dR].[dR].[am]}$$$$V2.0)
IC50 (S. cerevisiae Pma1): 0.5 µM

CCCCc1nc2sc3c(NCCCN(C)C)ncnc3c2c2c1CCCC2 [Compound 14]
Cells DiBAC4(3) positive and PI negative (S. cerevisiae cells; [1]): 44%
Cells PI positive but DiBAC4(3) negative (S. cerevisiae cells; [1]): 0.7%
Cells both PI and DiBAC4(3) negative (S. cerevisiae cells; [1]): 16%
Cells both PI and DiBAC4(3) positive (S. cerevisiae cells; [1]): 39%
PI signal (membrane integrity), in words (S. cerevisiae cells): minimal increase
DiBAC4(3) signal (membrane depolarization), in words (S. cerevisiae cells): elevated

CCc1nc2sc3c(NCCCN(C)C)ncnc3c2c2c1CCCC2 [Compound 17]
PI signal (membrane integrity), in words (S. cerevisiae cells): not significantly increased
DiBAC4(3) signal (membrane depolarization), in words (S. cerevisiae cells): did not increase

O=c1c2ccccc2[se]n1-c1ccccc1 [Ebselen, reference compound]
IC50 (C. albicans): 14 µM
